“And” between values parts separate entries of the source, which are not always exact repeats. Equal entries are not always repeated. Where two headings read alike, the source gives them in different places. Residues, ends and D or L forms follow the SMILES beside them. *: point of attachment. Myristoyl = CCCCCCCCCCCCCC(=O)*
Legend:
[1] = system: LPS-primed canine neutrophils; assay: MPO secretion from LPS-primed canine neutrophils; assay type: cell-based
Description: Results-I-11 and Results-I-12 show MPO secretion from LPS-primed human neutrophils as a model for humans, and Results-I-13, Results-I-14, and Results-I-15 show MPO secretion from LPS-primed canine neutrophils as a model for canines. In all of these experiments, isolated neutrophils were stimulated with LPS at a concentration of 1×10^−6 M for 10 minutes at 37° C. prior to adding the stimuli. The LPS primes the cells so they can respond to a secretagogue.
In another comparative experiment, when absorbance was monitored at 450 nm while observing MPO secretion from LPS-primed canine neutrophils, Results-I-13 were obtained as follows.
In another comparative experiment, when absorbance was monitored at 450 nm while observing MPO secretion from LPS-primed canine neutrophils, Results-I-14 were obtained as follows.
In another comparative experiment, when absorbance was monitored at 450 nm while observing MPO secretion from LPS-primed canine neutrophils, Results-I-15 were obtained as follows.
Isolation of PMNs from canine blood—The steps involved in isolating PMN include collecting 10 ml ACD anticoagulated blood; then layering 5 ml on 3.5 ml PMN isolation media while ensuring that the PMN isolation media (IM) was at room temperature (RI). Next, the blood was centrifuged at room temperature for 30′, 550×g at 1700 RPMs. The low lower white band was transferred into a 15 ml conical centrifuge tube (CCFT). Next, 2V HESS with 10% fetal bovine serum […] was added and centrifuged at room temperature for 10′, 400×g at 1400 RPMs. The pellet was then resuspended in 5 ml 1-1ESS with PBS. The cell suspension was added to 50 ml CCFT containing 20 ml of ice cold 0.88% NH4 Cland inverted two to three times. […]
MPO Colorimetric Enzyme Assay—Samples were assayed for MPO activity in 96 well round bottom microtiter plates using a sandwich ELISA kit (R & D Systems, Minneapolis, Minn.). […] After mixing, the assay mixture was incubated at room temperature for 5 minutes, and MPO enzyme activity determined spectrophotometrically at […]. […]

[2] = system: NHBE cells; assay: Cytotoxicity / metabolic activity of NHBE cells (LDH release, deoxyglucose uptake); assay type: cell-based, human; details: peptide 1-100 μM
Description: In Results-I-2B-1 and Results-I-2B-2, the MANS peptide blocked mucin hypersecretion induced by PMA+8-Br-cGMP or UTP in a concentration-dependent manner. NHBE cells were preincubated with the indicated peptide for 15 min and then exposed to PMA (100 nM)+8-Br-cGMP (1 μM) for 15 min or UTP (100 μM) for 2 h. Mucin secretion was measured by ELISA.
Cytotoxicity Assay—All reagents used in treating NHBE cells were examined for cytotoxicity by measuring the total release of lactate dehydrogenase from the cells. The assay was carried out using the Promega Cytotox 96 Kit according to the manufacturer's instructions. All experiments were performed with reagents at non-cytotoxic concentrations.

[3] = system: LPS-induced lung inflammation; assay type: in vivo, mouse; details: for Hb / MPO / LDH / Total Protein: BAL fluid; for % Inhibition of MPO: mouse, in vivo; for % Inhibition of neutrophil migration: relative to PBS/LPS treatment
Description: Thus, six to seven week old CD1 female mice weighing 15-20 grams were obtained from Charles River laboratories and housed in groups of 5 mice per cage. The animals received standard rodent diet and filtered water ad libitum. The animals were housed under NIH prescribed guidelines at standard temperature (64° to 79° F.) and relative humidity of 30 to 70%.
Four treatment groups of mice, with 5 animals in each group, were treated either with PBS followed by PBS, with PBS followed by LPS, with (myristoylated) MANS peptide followed by LPS, or with peptide of SEQ ID NO: 15 (MA-GAQFSKTAAK) followed by LPS.
Intranasal peptide instillation pre-treatment: A peptide of the invention to be evaluated in vivo for its ability to inhibit or reduce LPS-induced lung inflammation was dissolved in PBS at a concentration of 1 mM. Animals, anesthetized with 0.8% isofluorane by inhalation, were pretreated with 2×10 μl intranasal bolus of the peptide solution into one nostril 30 minutes prior to subsequent instillation with LPS.
Intranasal LPS instillation: Lipopolysaccharide (LPS) Endotoxin (Escherichia coli Serotype 011:B4 derived endotoxin; Sigma, St Louis, Mo.; see Sigma product information sheet L4130 titled Lipopolysaccharides from Escherichia coli 011:B4) was dissolved into phosphate buffered saline (PBS) at 2,500 μg/mL. To expose animals to endotoxin, a 10 μL intranasal bolus of 2,500 μg/ml endotoxin solution was administered to animals which had been anesthetized with 0.8% isofluorane by inhalation. The 10 μL bolus was applied into one nostril. Animals were monitored for labored breathing, lethargy, and decreased water/food intake following the endotoxin instillations.
Bronchoalveolar Lavage (BAL): Six hours after the last instillation, the animals were anesthetized (90 mg/kg Nembutal) and sacrificed by exsanguination. The lung was serially lavaged 2 times with 1.0 mL aliquots of PBS. The collected BAL fluid was centrifuged to remove the cells for subsequent counting and differential analysis. Recovered lavage fluid was used for analysis of total protein, myeloperoxidase (MPO), LDH, and hemoglobin.
Analysis: Aliquots of the BAL fluid were used immediately to assay for the levels of LDH, total protein, or hemoglobin (Hb) using the COBAS Fara analyzer (COBAS FARA II automated analyzer; Roche Diagnostic Systems Inc., Montclair, N.J.). An aliquot of BAL fluid was frozen at −80° C. for subsequent quantitation of myeloperoxidase (MPO) with a mouse-specific ELISA assay (Cell Sciences, Inc., Canton, Mass.). BAL data were analyzed by standard techniques to examine differences between the control and treatment groups.

## Nc1nc2c(nc(Br)n2[C@@H]2O[C@@H]3COP(=O)(O)O[C@H]3[C@H]2O)c(=O)[nH]1 [8-Br-cGMP]
[1]; 8-Br-cGMP 1 micromolar alone
  Absorbance reading at 450 nm (MPO secretion): approximately 0.078
[1]; 8-Br-cGMP 10 micromolar alone
  Absorbance reading at 450 nm (MPO secretion): approximately 0.0835

## CCCCCCCCCCCCCC(=O)NCC(=O)N[C@@H](C)C(=O)N[C@@H](CCC(N)=O)C(=O)N[C@@H](Cc1ccccc1)C(=O)N[C@@H](CO)C(=O)N[C@@H](CCCCN)C(=O)N[C@H](C(=O)N[C@@H](C)C(=O)N[C@@H](C)C(=O)N[C@@H](CCCCN)C(=O)NCC(=O)N[C@@H](CCC(=O)O)C(=O)N[C@@H](C)C(=O)N[C@@H](C)C(=O)N[C@@H](C)C(=O)N[C@@H](CCC(=O)O)C(=O)N[C@@H](CCCNC(=N)N)C(=O)N1CCC[C@H]1C(=O)NCC(=O)N[C@@H](CCC(=O)O)C(=O)N[C@@H](C)C(=O)N[C@@H](C)C(=O)N[C@H](C(=O)N[C@@H](C)C(=O)O)C(C)C)[C@@H](C)O [MANS peptide] (Myristoyl-GAQFSKTAAKGEAAAERPGEAAVA-OH; C-terminus assumed)
[2]
  Lactate dehydrogenase release: neither the MANS nor the RNS peptide affected
  [3H]deoxyglucose uptake: neither the MANS nor the RNS peptide affected
[3]; BAL 6 h after LPS, intranasal 2×10 μl of 1 mM peptide 30 min before LPS, Table 3 (PBS/LPS 264,200)
  Total cells counted: 208,457
[3]; Table 3 (PBS/LPS 0.19)
  Hb: 0.05 g/dL
[3]; Table 3 (PBS/LPS 28.98)
  MPO: 9.49 ng/mL
[3]; Table 3 (PBS/LPS 60.40)
  LDH: 68.57 units/L
[3]; Table 3 (PBS/LPS 272.40)
  Total Protein: 175.00 µg/mL
[3]; Table 3 (PBS/LPS 41.7)
  % Neutrophils of total cells: 30.9%
[3]; Table 3 (PBS/LPS 110,061)
  Total neutrophils counted: 64,481
[3]
  % Inhibition of MPO: 67.2%
  % Inhibition of neutrophil migration: 41.4%

## CCCCCCCCCCCCCC(=O)O[C@@H]1[C@@H](C)[C@@]2(O)[C@@H](C=C(CO)C[C@]3(O)C(=O)C(C)=C[C@@H]23)[C@@H]2C(C)(C)[C@]12OC(C)=O [PMA, phorbol 12-myristate 13-acetate]
[1]; 100 nM PMA alone
  Absorbance reading at 450 nm (MPO secretion): 0.078 and 0.0825

## CCCCCCCCCCCCCC(=O)NCC(=O)N[C@H](C(=O)N[C@@H](C)C(=O)N1CCC[C@H]1C(=O)N[C@@H](C)C(=O)N[C@@H](C)C(=O)N[C@@H](CCC(=O)O)C(=O)NCC(=O)N[C@@H](C)C(=O)NCC(=O)N[C@@H](C)C(=O)N[C@@H](CCC(=O)O)C(=O)N[C@H](C(=O)N[C@@H](CCCCN)C(=O)N[C@@H](CCCNC(=N)N)C(=O)N[C@@H](C)C(=O)N[C@@H](CO)C(=O)N[C@@H](C)C(=O)N[C@@H](CCC(=O)O)C(=O)N[C@@H](C)C(=O)N[C@@H](CCCCN)C(=O)N[C@@H](CCC(N)=O)C(=O)N[C@@H](C)C(=O)N[C@@H](Cc1ccccc1)C(=O)O)C(C)C)[C@@H](C)O [RNS peptide, reference compound] (Myristoyl-GTAPAAEGAGAEVKRASAEAKQAF-OH; C-terminus assumed)
[2]
  Lactate dehydrogenase release: neither the MANS nor the RNS peptide affected
  [3H]deoxyglucose uptake: neither the MANS nor the RNS peptide affected

## CCCCCCCCCCCCCC(=O)NCC(=O)N[C@@H](C)C(=O)N[C@@H](CCC(N)=O)C(=O)N[C@@H](Cc1ccccc1)C(=O)N[C@@H](CO)C(=O)N[C@@H](CCCCN)C(=O)N[C@H](C(=O)N[C@@H](C)C(=O)N[C@@H](C)C(=O)N[C@@H](CCCCN)C(=O)O)[C@@H](C)O [SEQ ID NO: 15, N-myristoyl-GAQFSKTAAK] (Myristoyl-GAQFSKTAAK-OH; C-terminus assumed)
[3]; BAL 6 h after LPS, intranasal peptide 30 min before LPS, Table 4 (PBS/LPS 422,300)
  Total Cell Counts: 628,075
[3]; Table 4 (PBS/LPS 0.01)
  Hb: 0.01 g/dL
[3]; Table 4 (PBS/LPS 17.33)
  MPO: 0.79 ng/mL
[3]; Table 4 (PBS/LPS 107.80)
  LDH: 110.75 units/L
[3]; Table 4 (PBS/LPS 157.40)
  Total Protein: 120.25 µg/mL
[3]; Table 4 (PBS/LPS 28.2)
  % Neutrophils of total counts: 6.1%
[3]; Table 4 (PBS/LPS 119,114)
  Total Neutrophil counts: 38,548
[3]
  % Inhibition of MPO: 95.4%
  % Inhibition of neutrophil migration: 67.6%

From patent US8501911B2, “Methods of reducing inflammation and mucus hypersecretion” (Biomarck Pharmaceuticals, Ltd, priority 1999, dated 2013)
